# Test results from US20250163104A1, “MACROCYCLIC IMMUNOMODULATORS” (priority 2021, published 2025).
# Where a SMILES comes first, the peptide text is derived from it. Bridges are numbered along the chain shown (N, C = ends). [ ]: non-standard residue; d: D form. The star is where a group is joined. ξ: configuration not given here. Ala(morpholin-4-yl) = N[C@@H](CN1CCOCC1)C(=O)O; Phe(4-COOH) = N[C@@H](Cc1ccc(C(=O)O)cc1)C(=O)O; Bip = N[C@@H](Cc1ccc(-c2ccccc2)cc1)C(=O)O; Phe(3-Me) = Cc1cccc(C[C@H](N)C(=O)O)c1; Gla = N[C@@H](CC(C(=O)O)C(=O)O)C(=O)O; Val(3-OH) = CC(C)(O)[C@H](N)C(=O)O; mTyr = N[C@@H](Cc1cccc(O)c1)C(=O)O; 4Pal = N[C@@H](Cc1ccncc1)C(=O)O; Cha = N[C@@H](CC1CCCCC1)C(=O)O; Cit = NC(=O)NCCC[C@H](N)C(=O)O; Thr(3ξ) = CC(O)[C@H](N)C(=O)O; NMeNle = CCCC[C@H](NC)C(=O)O; Carboxymethyl = O=C(O)C*; Nle = CCCC[C@H](N)C(=O)O; Orn = NCCC[C@H](N)C(=O)O; Pra = C#CC[C@H](N)C(=O)O; Dab = NCC[C@H](N)C(=O)O; Nva = CCC[C@H](N)C(=O)O; Dap = NC[C@H](N)C(=O)O; Propargyl = C#CC*
# Molecular target: T1, human PD-1 / PD-L1-Ig binding on Jurkat cell line over-expressing human PD-1 (Jurkat-PD-1) (Homo sapiens, UniProt Q15116)
# T1 construct: expressed in transfected cells; host or cells: Jurkat
# T1 sequence (Q15116 25-288): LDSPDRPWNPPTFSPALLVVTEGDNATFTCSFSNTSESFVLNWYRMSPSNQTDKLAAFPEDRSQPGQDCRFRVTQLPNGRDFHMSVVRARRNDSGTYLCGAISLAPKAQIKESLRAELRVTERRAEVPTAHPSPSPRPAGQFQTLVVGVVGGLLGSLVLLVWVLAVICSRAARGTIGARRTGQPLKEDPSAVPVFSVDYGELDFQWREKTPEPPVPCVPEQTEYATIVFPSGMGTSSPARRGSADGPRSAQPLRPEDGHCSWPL
# Test: Jurkat-PD-1 Cell Binding High-Content Screening Assay (CBA)
# Format: cell-based
# Settings: Jurkat-PD-1 cells, PE-labeled PD-L1-Ig 20 nM final; read-out: Jurkat HPD1_PDL1 IC50
# In short: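 Compounds were preincubated with Jurkat-hPD-1 cells in DMEM plus 10% fetal calf serum for 2 h at 37° C. Phycoerythrin-labeled PD-L1-Ig (20 nM final) was then added for 1 hour. Cells were fixed in 4% paraformaldehyde with Hoechst 33342, and bound fluorescence was quantified by high-content imaging.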
row,IC50,Structure (SMILES)
1,0.0207 µM,CC(C)C[C@@H]1NC(=O)[C@H](CCN)NC(=O)[C@@H](CC(C)C)NC(=O)[C@H](CCN)NC(=O)[C@H](CCCNC(N)=O)NC(=O)[C@H](Cc2ccc(-c3ccccc3)cc2)NC(=O)[C@H](C(C)C)NC(=O)[C@H](Cc2c[nH]c3ccccc23)NC(=O)[C@H](CC(=O)O)NC(=O)[C@H](Cc2ccc(O)cc2)NC(=O)[C@H](CC(N)=O)NC(=O)CSC[C@@H](C(=O)N[C@@H](C)C(N)=O)NC(=O)[C@H]([C@@H](C)O)NC(=O)[C@H](C(C)C)NC1=O [Compound 1018] ({CH2CO}-NYDWV[Bip][Cit][Dab][dL][Dab]LVTCA-NH2; thioether N-14)
2,0.0117 µM,Cc1cccc(C[C@@H]2NC(=O)[C@H](CC(=O)O)NC(=O)[C@H](Cc3ccc(OCC(=O)O)cc3)NC(=O)[C@H](Cc3ccncc3)NC(=O)CSC[C@@H](C(=O)N[C@@H](CCN)C(N)=O)NC(=O)[C@H](CO)NC(=O)[C@H](C(C)(C)O)NC(=O)[C@H](CC3CCCCC3)NC(=O)[C@H](Cc3cnc[nH]3)NC(=O)[C@@H](CC(C)C)NC(=O)[C@H](CCCN)NC(=O)[C@H](Cc3ccc(OCC(=O)O)cc3)NC(=O)[C@H](Cc3ccc(-c4ccccc4)cc3)NC(=O)[C@H](Cc3ccc(OCC(=O)O)cc3)NC2=O)c1 [Compound 2645] ({CH2CO}-[4Pal]Y(Carboxymethyl)D[Phe(3-Me)]Y(Carboxymethyl)[Bip]Y(Carboxymethyl)[Orn][dL]H[Cha][Val(3-OH)]SC[Dab]-NH2; thioether N-14)
3,0.0313 µM,CCCC[C@@H]1NC(=O)[C@H](CCN)NC(=O)[C@@H](CC(C)C)NC(=O)[C@H](CCCN)NC(=O)[C@H]([C@@H](C)CC)NC(=O)[C@H](Cc2ccc(-c3ccccc3)cc2)NC(=O)[C@H](C(C)C)NC(=O)[C@H](Cc2c[nH]c3ccccc23)NC(=O)[C@H](CC(=O)O)NC(=O)[C@H](Cc2ccc(O)cc2)NC(=O)[C@H](CN)NC(=O)CSC[C@@H](C(=O)N[C@@H](C)C(N)=O)NC(=O)[C@H]([C@@H](C)O)NC(=O)[C@H](C(C)C)NC1=O [Compound 1160] ({CH2CO}-[Dap]YDWV[Bip]I[Orn][dL][Dab][Nle]VTCA-NH2; thioether N-14)
4,0.0133 µM,CCC(C)[C@@H]1NC(=O)[C@H](Cc2ccc(-c3ccccc3)cc2)NC(=O)[C@H](C(C)C)NC(=O)[C@H](Cc2cc(C)ccc2F)NC(=O)[C@H](CC(=O)O)NC(=O)[C@H](Cc2ccc(OCC(=O)O)cc2)NC(=O)[C@H](CN)NC(=O)CSC[C@@H](C(=O)N[C@@H](C)C(N)=O)NC(=O)[C@H]([C@@H](C)O)NC(=O)[C@H](C(C)C)NC(=O)[C@H](CC2CCCCC2)NC(=O)[C@H](CCN)NC(=O)[C@@H](CC(C)C)NC(=O)[C@H](CCCN)NC1=O (some centres unmarked) [Compound 2247]
5,0.0925 µM,CCCC[C@H]1C(=O)N[C@@H](Cc2ccc(C(=O)O)cc2)C(=O)N[C@@H](CC(=O)O)C(=O)N[C@@H](Cc2c[nH]c3ccccc23)C(=O)N[C@@H](C(C)C)C(=O)N[C@@H](Cc2ccc(-c3ccccc3)cc2)C(=O)N[C@@H](C(C)C)C(=O)N[C@@H](CCCN)C(=O)N[C@H](CC(C)C)C(=O)N[C@@H](CCN)C(=O)N[C@@H](CC2CCCCC2)C(=O)N[C@@H](C(C)C)C(=O)N[C@@H](C(C)O)C(=O)N[C@H](C(=O)N[C@@H](CC(N)=O)C(N)=O)CSCC(=O)N1C (stereo partly drawn) [Compound 2551] ({CH2CO}-[NMeNle][Phe(4-COOH)]DWV[Bip]V[Orn][dL][Dab][Cha]V[Thr(3ξ)]CN-NH2; thioether N-14)
6,0.0116 µM,C#CC[C@H](NC(=O)[C@H](CCCN)NC(=O)[C@@H]1CSCC(=O)N[C@@H](CN)C(=O)N[C@@H](Cc2ccc(OCC(=O)O)cc2)C(=O)N[C@@H](CC(=O)O)C(=O)N[C@@H](Cc2cccc(C)c2)C(=O)N[C@@H](C(C)C)C(=O)N[C@@H](Cc2ccc(-c3ccccc3)cc2)C(=O)N[C@@H](C(C)C)C(=O)N[C@@H](CCCN)C(=O)N[C@H](CC(C)C)C(=O)N[C@@H](CCN)C(=O)N[C@@H](CC2CCCCC2)C(=O)N[C@@H](C(C)C)C(=O)N[C@@H]([C@@H](C)O)C(=O)N1)C(N)=O [Compound 2017] ({CH2CO}-[Dap]Y(Carboxymethyl)D[Phe(3-Me)]V[Bip]V[Orn][dL][Dab][Cha]VTC[Orn][Pra]-NH2; thioether N-14)
7,0.365 µM,CC(C)C[C@H]1NC(=O)[C@H](CCCN)NC(=O)[C@H](CCCNC(N)=O)NC(=O)[C@H](Cc2ccc(-c3ccccc3)cc2)NC(=O)[C@H](C(C)C)NC(=O)[C@H](Cc2c[nH]c3ccccc23)NC(=O)[C@H](CC(=O)O)NC(=O)[C@H](CC(C(=O)O)C(=O)O)NC(=O)[C@H](CN)NC(=O)CSC[C@@H](C(=O)N[C@@H](C)C(N)=O)NC(=O)[C@H]([C@@H](C)O)NC(=O)[C@H](C(C)C)NC(=O)[C@H](CC2CCCCC2)NC(=O)[C@H](CCN)NC1=O [Compound 2134] ({CH2CO}-[Dap][Gla]DWV[Bip][Cit][Orn][dL][Dab][Cha]VTCA-NH2; thioether N-14)
8,0.0028 µM,CCNC(=O)[C@H](CCN)NC(=O)[C@@H]1CSCC(=O)N[C@@H](CN)C(=O)N[C@@H](Cc2ccc(OCC(=O)O)cc2)C(=O)N[C@@H](CC(=O)O)C(=O)N[C@@H](Cc2cccc(O)c2)C(=O)N[C@@H](Cc2ccc(O)cc2)C(=O)N[C@@H](Cc2ccc(-c3ccccc3)cc2)C(=O)N[C@@H](Cc2ccc(O)cc2)C(=O)N[C@@H](CCCN)C(=O)N[C@H](CC(C)C)C(=O)N[C@@H](CCN)C(=O)N[C@@H](CC2CCCCC2)C(=O)N[C@@H](C(C)C)C(=O)N[C@@H](CCCN)C(=O)N1 [Compound 2047] ({CH2CO}-[Dap]Y(Carboxymethyl)D[mTyr]Y[Bip]Y[Orn][dL][Dab][Cha]V[Orn]C[Dab]-NHEt; thioether N-14)
9,0.014 µM,CC(C)C[C@H]1NC(=O)[C@H](CCCN)NC(=O)[C@H](CCCN)NC(=O)[C@H](Cc2ccc(-c3ccccc3)cc2)NC(=O)[C@H](C(C)C)NC(=O)[C@H](Cc2c[nH]c3ccccc23)NC(=O)[C@H](CC(=O)O)NC(=O)[C@H](Cc2ccc(C(=O)O)cc2)NC(=O)[C@H](Cc2ccc(OCC(=O)O)cc2)NC(=O)CSC[C@@H](C(=O)N[C@@H](C)C(N)=O)NC(=O)[C@H]([C@@H](C)O)NC(=O)[C@H](C(C)C)NC(=O)[C@H](CC2CCCCC2)NC(=O)[C@H](CCN)NC1=O [Compound 1382] ({CH2CO}-Y(Carboxymethyl)[Phe(4-COOH)]DWV[Bip][Orn][Orn][dL][Dab][Cha]VTCA-NH2; thioether N-14)
10,0.234 µM,CC(C)C[C@@H]1NC(=O)[C@H](Cc2c[nH]c3ccccc23)NC(=O)[C@H](CC(=O)O)NC(=O)[C@H](Cc2ccc(OCC(=O)O)cc2)NC(=O)[C@H](C(C)O)NC(=O)CSC[C@@H](C(N)=O)NC(=O)[C@H](CO)NC(=O)[C@H](C(C)C)NC(=O)[C@H](CC2CCCCC2)NC(=O)[C@H](Cc2cnc[nH]2)NC(=O)[C@@H](CC(C)C)NC(=O)[C@H](Cc2cnc[nH]2)NC(=O)[C@H](C(C)C)NC(=O)[C@H](Cc2ccc(-c3ccccc3)cc2)NC1=O (stereo partly drawn) [Compound 2604] ({CH2CO}-[Thr(3ξ)]Y(Carboxymethyl)DWL[Bip]VH[dL]H[Cha]VSC-NH2; thioether N-14)
11,0.0094 µM,C#CC[C@H](NC(=O)[C@H](CCN)NC(=O)[C@@H]1CSCC(=O)N[C@@H](CN2CCOCC2)C(=O)N[C@@H](Cc2ccc(OCC(=O)O)cc2)C(=O)N[C@@H](CC(=O)O)C(=O)N[C@@H](Cc2cccc(C)c2)C(=O)N[C@@H](Cc2ccc(OCC(=O)O)cc2)C(=O)N[C@@H](Cc2ccc(-c3ccccc3)cc2)C(=O)N[C@@H](Cc2ccc(OCC(=O)O)cc2)C(=O)N[C@@H](CCCN)C(=O)N[C@H](CC(C)C)C(=O)N[C@@H](CCN)C(=O)N[C@@H](CC2CCCCC2)C(=O)N[C@@H](C(C)C)C(=O)N[C@@H](CCC(=O)O)C(=O)N1)C(=O)O [Compound 1827] ({CH2CO}-[Ala(morpholin-4-yl)]Y(Carboxymethyl)D[Phe(3-Me)]Y(Carboxymethyl)[Bip]Y(Carboxymethyl)[Orn][dL][Dab][Cha]VEC[Dab][Pra]-OH; thioether N-14)
12,0.047 µM,CCCC[C@@H]1NC(=O)[C@H](CCCNC(=N)N)NC(=O)[C@@H](CC(C)C)NC(=O)[C@H](CCCN)NC(=O)[C@H]([C@@H](C)CC)NC(=O)[C@H](Cc2ccc(-c3ccccc3)cc2)NC(=O)[C@H](C(C)C)NC(=O)[C@H](Cc2c[nH]c3ccccc23)NC(=O)[C@H](CC(=O)O)NC(=O)[C@H](Cc2ccc(O)cc2)NC(=O)[C@H](CN)NC(=O)CSC[C@@H](C(=O)N[C@@H](C)C(N)=O)NC(=O)[C@H]([C@@H](C)O)NC(=O)[C@H](C(C)C)NC1=O [Compound 1149] ({CH2CO}-[Dap]YDWV[Bip]I[Orn][dL]R[Nle]VTCA-NH2; thioether N-14)
13,0.0026 µM,C#CCOc1ccc(C[C@@H]2NC(=O)[C@H](Cc3cccc(C)c3)NC(=O)[C@H](CC(=O)O)NC(=O)[C@H](Cc3ccc(OCC(=O)O)cc3)NC(=O)[C@H](CCC)NC(=O)CSC[C@@H](C(=O)N[C@@H](CCN)C(N)=O)NC(=O)[C@H](CCC(=O)O)NC(=O)[C@H](C(C)C)NC(=O)[C@H](CC3CCCCC3)NC(=O)[C@H](CCN)NC(=O)[C@@H](CC(C)C)NC(=O)[C@H](CCCN)NC(=O)[C@H](Cc3ccc(OCC(=O)O)cc3)NC(=O)[C@H](Cc3ccc(-c4ccccc4)cc3)NC2=O)cc1 [Compound 1832] ({CH2CO}-[Nva]Y(Carboxymethyl)D[Phe(3-Me)]Y(Propargyl)[Bip]Y(Carboxymethyl)[Orn][dL][Dab][Cha]VEC[Dab]-NH2; thioether N-14)
14,0.232 µM,CC(C)C[C@H]1NC(=O)[C@H](CCCN)NC(=O)[C@H](CCCNC(N)=O)NC(=O)[C@H](Cc2ccc(-c3ccccc3)cc2)NC(=O)[C@H](C(C)C)NC(=O)[C@H](Cc2c[nH]c3ccccc23)NC(=O)[C@H](CC(=O)O)NC(=O)[C@H](CCC(=O)O)NC(=O)[C@H](CN)NC(=O)CSC[C@@H](C(=O)N[C@@H](C)C(N)=O)NC(=O)[C@H]([C@@H](C)O)NC(=O)[C@H](C(C)C)NC(=O)[C@H](CC2CCCCC2)NC(=O)[C@H](CCN)NC1=O [Compound 2121] ({CH2CO}-[Dap]EDWV[Bip][Cit][Orn][dL][Dab][Cha]VTCA-NH2; thioether N-14)
